Assay results from US20250313544A1, “INHIBITORS OF GLUTATHIONE S-TRANSFERASE ZETA 1 (GSTZ1) AND METHODS OF USE” (H. LEE MOFFITT CANCER CENTER AND RESEARCH INSTITUTE, INC., priority 2022, published 2025).

Tests used:
[1] = tested on: HCC366 cells harboring mutated DDR2; test: Cell viability assay (CellTiter-Glo) in HCC366 cells; format: cell-based, human; conditions: probe combined with dasatinib in HCC366 cells, dose of 10 μM (FIG. 9F)
Description: (§1) Cells were seeded in Corning 384-well black walled/clear bottom microplates with a density of 1,000 cells/well and treated with indicated drugs and concentrations following cell attachment for 24 h. After 72 h or 96 h, as indicated, cell viability was evaluated with CellTiter-Glo (Promega, Madison, WI) according to manufacturer's recommendations. An M5 Spectramax plate reader (Molecular devices) was used to read the plates with 500 ms integration. Data was processed and analyzed using Excel and GraphPad Prism 9.0.

[2] = tested on: drug-refractory NSCLC cells (H1792, H520, HCC366); test: Cell viability assay (CellTiter-Glo) across drug-refractory NSCLC cell lines; format: cell-based, human
Description: as §1

[3] = biological target: T1, GSTZ1 (Homo sapiens, UniProt O43708); test: GSTZ1 pulldown and competition after photocrosslinking in live H1792 cells (biotin enrichment, immunoblotting); format: binding; design: endogenous in cells; host or cells: H1792 cells; conditions: UV crosslinking
T1 sequence (O43708 1-216): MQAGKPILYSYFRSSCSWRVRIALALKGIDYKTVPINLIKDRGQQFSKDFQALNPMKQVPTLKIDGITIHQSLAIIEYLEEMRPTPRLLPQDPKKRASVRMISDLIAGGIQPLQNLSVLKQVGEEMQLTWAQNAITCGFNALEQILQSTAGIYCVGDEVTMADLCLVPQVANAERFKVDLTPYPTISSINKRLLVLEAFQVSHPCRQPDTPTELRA
Description: Cells were harvested and washed with PBS and lysed in RIPA buffer (150 mM NaCl, 50 mM Tris-HCl, pH 7.4, 5 mM EDTA, 1% NP40, 0.1% SDS) containing complete protease inhibitor cocktail (Roche, 11873580001) and phosphatase inhibitor cocktail 2 (Sigma, P5726) for 30 min on ice. The Coomassie Plus (Bradford) protein assay (23236, ThermoFisher, MA) was conducted for measuring concentrations of resulting supernatants. Samples were prepared by adding 4× Laemmli sample buffer and heat-denaturing for 5 minutes. All samples or total cell lysates were resolved by SDS-PAGE and then transferred onto PVDF membranes. 5% non-fat milk was utilized for blocking of non-specific binding. Blots were incubated with primary antibodies overnight at 4° C. For immunoblotting, primary antibodies were purchased from Cell Signaling: PARP1 (#9542), cleaved caspase-3 (#9661), Phospho-tyrosine Mouse mAb (P-Tyr-100, #9411), FGFR1 (#9740). GAPDH (#60004-1-Ig) and GSTZ1 (#14889-1-AP) were purchased from Proteintech. […] Densitometry was analyzed using Image Studio Lite Ver 5.2.
Cells were grown in 10 cm dishes to ˜90% confluence at the time of treatment. […] Protein concentrations were determined using Bradford assays. […]

GSTZ1 enrichment by probe (affinity enrichment, immunoblotting with GSTZ1 antibody) [3]: specifically enriched
SMILES: C#CCCC1(CCC(=O)N2CCC(COc3nc4ccccc4nc3C)CC2)N=N1 [Probe 17, 3-(3-(but-3-yn-1-yl)-3H-diazirin-3-yl)-1-(4-(((3-methylquinoxalin-2-yl)oxy)methyl)piperidin-1-yl)propan-1-one]
sensitization of cells towards dasatinib [1]: significantly enhanced the sensitivity
single agent activity (cell viability) [2]: moderate single agent activity
cellular activity of probes (cell viability) ([2]; single agent): displayed activity toward multiple tested cell lines
relative potency among active probes (cell viability) ([2]; single agent): more potent
